{"source": "paper PMC7407272", "about": "“Induction of Lysosome Membrane Permeabilization as a Therapeutic Strategy to Target Pancreatic Cancer Stem Cells” (Cancers, 2020)", "assay_in_all_cases": "KINOMEscan", "format_in_all_cases": "binding", "details_in_all_cases": "read-out: % Ctrl", "key": {"[1]": {"target": "T1, ABL1(E255K)-P (Homo sapiens, UniProt P00519, E255K)", "T1 construct": "purchased DiscoveRx KINOMEscan"}, "[2]": {"target": "T2, PDGFRB (Homo sapiens, UniProt P09619)", "T2 construct": "purchased DiscoveRx KINOMEscan"}, "[3]": {"target": "T3, PFPK5(P.falciparum) (Plasmodium falciparum, UniProt P61075)", "T3 construct": "purchased DiscoveRx KINOMEscan"}, "[4]": {"target": "T4, ABL1(Y253F)-P (Homo sapiens, UniProt P00519, Y253F)", "T4 construct": "purchased DiscoveRx KINOMEscan"}, "[5]": {"target": "T5, FLT3(R834Q) (Homo sapiens, UniProt P36888, R834Q)", "T5 construct": "purchased DiscoveRx KINOMEscan"}, "[6]": {"target": "T6, ACVR2A (Homo sapiens, UniProt P27037)", "T6 construct": "purchased DiscoveRx KINOMEscan"}, "[7]": {"target": "T7, FLT4 (Homo sapiens, UniProt P35916)", "T7 construct": "purchased DiscoveRx KINOMEscan"}, "[8]": {"target": "T8, PIK4CB (Homo sapiens, UniProt Q9UBF8)", "T8 construct": "purchased DiscoveRx KINOMEscan"}, "[9]": {"target": "T9, ALK(L1196M) (Homo sapiens, UniProt Q9UM73, L1196M)", "T9 construct": "purchased DiscoveRx KINOMEscan", "T9 sequence (Q9UM73 19-1620 L1196M)": "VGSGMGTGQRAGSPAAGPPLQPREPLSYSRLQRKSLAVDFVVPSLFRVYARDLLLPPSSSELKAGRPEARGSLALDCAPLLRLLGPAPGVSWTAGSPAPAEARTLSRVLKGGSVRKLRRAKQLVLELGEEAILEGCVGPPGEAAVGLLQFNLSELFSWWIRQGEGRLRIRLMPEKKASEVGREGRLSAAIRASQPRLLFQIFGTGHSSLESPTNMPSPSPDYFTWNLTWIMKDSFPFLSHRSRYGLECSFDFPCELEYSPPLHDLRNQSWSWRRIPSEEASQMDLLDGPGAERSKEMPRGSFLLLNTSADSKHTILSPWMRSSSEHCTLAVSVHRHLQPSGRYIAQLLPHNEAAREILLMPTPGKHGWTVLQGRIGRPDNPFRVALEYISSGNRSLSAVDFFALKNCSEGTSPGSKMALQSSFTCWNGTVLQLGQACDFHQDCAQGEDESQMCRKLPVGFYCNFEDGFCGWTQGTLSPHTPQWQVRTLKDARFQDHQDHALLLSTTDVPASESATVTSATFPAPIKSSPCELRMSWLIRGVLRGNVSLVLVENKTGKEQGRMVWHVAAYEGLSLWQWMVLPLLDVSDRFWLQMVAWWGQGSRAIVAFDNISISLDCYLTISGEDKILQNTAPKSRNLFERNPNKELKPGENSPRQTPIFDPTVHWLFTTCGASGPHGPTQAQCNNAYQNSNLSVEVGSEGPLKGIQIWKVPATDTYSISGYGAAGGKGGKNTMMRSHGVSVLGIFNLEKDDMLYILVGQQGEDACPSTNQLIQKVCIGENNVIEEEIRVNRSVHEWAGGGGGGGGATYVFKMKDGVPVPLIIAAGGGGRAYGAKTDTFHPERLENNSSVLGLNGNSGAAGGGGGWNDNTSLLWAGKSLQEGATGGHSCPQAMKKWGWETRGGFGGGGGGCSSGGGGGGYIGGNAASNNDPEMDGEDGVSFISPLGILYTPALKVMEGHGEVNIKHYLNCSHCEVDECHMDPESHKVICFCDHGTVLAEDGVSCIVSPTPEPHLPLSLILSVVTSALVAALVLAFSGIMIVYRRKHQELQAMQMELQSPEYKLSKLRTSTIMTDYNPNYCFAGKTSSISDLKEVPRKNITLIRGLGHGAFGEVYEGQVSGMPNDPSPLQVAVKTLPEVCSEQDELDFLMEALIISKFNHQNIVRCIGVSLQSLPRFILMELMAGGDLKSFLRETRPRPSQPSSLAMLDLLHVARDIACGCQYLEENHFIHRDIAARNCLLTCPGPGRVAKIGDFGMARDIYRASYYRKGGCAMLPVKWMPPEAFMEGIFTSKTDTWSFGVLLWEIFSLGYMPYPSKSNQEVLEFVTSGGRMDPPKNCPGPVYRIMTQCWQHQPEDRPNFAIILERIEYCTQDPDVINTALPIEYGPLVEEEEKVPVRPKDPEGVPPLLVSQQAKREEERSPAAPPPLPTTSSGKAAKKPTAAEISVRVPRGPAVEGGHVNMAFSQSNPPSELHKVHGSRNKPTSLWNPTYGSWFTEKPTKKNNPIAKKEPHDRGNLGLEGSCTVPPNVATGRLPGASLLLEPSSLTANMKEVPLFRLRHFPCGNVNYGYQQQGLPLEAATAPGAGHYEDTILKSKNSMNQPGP"}, "[10]": {"target": "T10, BLK (Homo sapiens, UniProt P51451)", "T10 construct": "purchased DiscoveRx KINOMEscan"}, "[11]": {"target": "T11, PLK3 (Homo sapiens, UniProt Q9H4B4)", "T11 construct": "purchased DiscoveRx KINOMEscan"}, "[12]": {"target": "T12, INSRR (Homo sapiens, UniProt P14616)", "T12 construct": "purchased DiscoveRx KINOMEscan"}, "[13]": {"target": "T13, BRAF(V600E) (Homo sapiens, UniProt P15056, V600E)", "T13 construct": "purchased DiscoveRx KINOMEscan"}, "[14]": {"target": "T14, IRAK3 (Homo sapiens, UniProt Q9Y616)", "T14 construct": "purchased DiscoveRx KINOMEscan"}, "[15]": {"target": "T15, IRAK4 (Homo sapiens, UniProt Q9NWZ3)", "T15 construct": "purchased DiscoveRx KINOMEscan"}, "[16]": {"target": "T16, JNK2 (Homo sapiens, UniProt P45984)", "T16 construct": "purchased DiscoveRx KINOMEscan"}, "[17]": {"target": "T17, CAMK1G (Homo sapiens, UniProt Q96NX5)", "T17 construct": "purchased DiscoveRx KINOMEscan"}, "[18]": {"target": "T18, KIT (Homo sapiens, UniProt P10721)", "T18 construct": "purchased DiscoveRx KINOMEscan"}, "[19]": {"target": "T19, RAF1 (Homo sapiens, UniProt P04049)", "T19 construct": "purchased DiscoveRx KINOMEscan"}, "[20]": {"target": "T20, CAMKK1 (Homo sapiens, UniProt Q8N5S9)", "T20 construct": "purchased DiscoveRx KINOMEscan"}, "[21]": {"target": "T21, CDC2L2 (Homo sapiens, UniProt Q9UQ88)", "T21 construct": "purchased DiscoveRx KINOMEscan"}, "[22]": {"target": "T22, MAP3K15 (Homo sapiens, UniProt Q6ZN16)", "T22 construct": "purchased DiscoveRx KINOMEscan"}, "[23]": {"target": "T23, RSK2(KD2-C-t.) (Homo sapiens, UniProt P51812)", "T23 construct": "RSK2(KD2-C-t.); purchased DiscoveRx KINOMEscan", "T23 sequence (P51812 398-740 limits assumed)": "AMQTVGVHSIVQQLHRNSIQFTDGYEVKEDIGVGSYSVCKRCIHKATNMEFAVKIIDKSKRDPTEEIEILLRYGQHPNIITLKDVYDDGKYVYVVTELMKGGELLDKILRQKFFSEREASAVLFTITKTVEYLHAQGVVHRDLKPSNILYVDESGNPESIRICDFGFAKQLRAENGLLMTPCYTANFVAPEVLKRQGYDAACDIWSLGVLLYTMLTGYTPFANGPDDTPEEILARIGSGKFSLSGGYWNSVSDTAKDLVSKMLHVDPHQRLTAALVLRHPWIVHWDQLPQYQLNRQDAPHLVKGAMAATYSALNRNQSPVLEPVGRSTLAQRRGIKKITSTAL"}, "[24]": {"target": "T24, RSK3(KD1-N-t.) (Homo sapiens, UniProt Q15349)", "T24 construct": "RSK3(KD1-N-t.); purchased DiscoveRx KINOMEscan"}, "[25]": {"target": "T25, CHEK2 (Homo sapiens, UniProt O96017)", "T25 construct": "purchased DiscoveRx KINOMEscan"}, "[26]": {"target": "T26, MAP4K2 (Homo sapiens, UniProt Q12851)", "T26 construct": "purchased DiscoveRx KINOMEscan"}, "[27]": {"target": "T27, RSK4(KD2-C-t.) (Homo sapiens, UniProt Q9UK32)", "T27 construct": "RSK4(KD2-C-t.); purchased DiscoveRx KINOMEscan", "T27 sequence (Q9UK32 401-745 limits assumed)": "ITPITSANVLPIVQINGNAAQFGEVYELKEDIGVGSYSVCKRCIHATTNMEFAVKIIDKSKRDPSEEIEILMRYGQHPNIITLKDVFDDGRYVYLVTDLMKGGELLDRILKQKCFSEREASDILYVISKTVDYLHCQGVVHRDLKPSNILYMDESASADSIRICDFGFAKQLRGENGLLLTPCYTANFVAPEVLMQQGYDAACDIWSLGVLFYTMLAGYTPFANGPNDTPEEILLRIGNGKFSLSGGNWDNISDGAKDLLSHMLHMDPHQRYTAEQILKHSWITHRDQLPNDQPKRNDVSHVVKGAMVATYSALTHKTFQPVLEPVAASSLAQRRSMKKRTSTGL"}, "[28]": {"target": "T28, CSNK1A1L (Homo sapiens, UniProt Q8N752)", "T28 construct": "purchased DiscoveRx KINOMEscan"}, "[29]": {"target": "T29, MARK4 (Homo sapiens, UniProt Q96L34)", "T29 construct": "purchased DiscoveRx KINOMEscan"}, "[30]": {"target": "T30, SNRK (Homo sapiens, UniProt Q9NRH2)", "T30 construct": "purchased DiscoveRx KINOMEscan"}, "[31]": {"target": "T31, SYK (Homo sapiens, UniProt P43405)", "T31 construct": "purchased DiscoveRx KINOMEscan"}, "[32]": {"target": "T32, TAOK2 (Homo sapiens, UniProt Q9UL54)", "T32 construct": "purchased DiscoveRx KINOMEscan"}, "[33]": {"target": "T33, MLK3 (Homo sapiens, UniProt Q16584)", "T33 construct": "purchased DiscoveRx KINOMEscan"}, "[34]": {"target": "T34, TLK1 (Homo sapiens, UniProt Q9UKI8)", "T34 construct": "purchased DiscoveRx KINOMEscan"}, "[35]": {"target": "T35, MST4 (Homo sapiens, UniProt Q9P289)", "T35 construct": "purchased DiscoveRx KINOMEscan"}, "[36]": {"target": "T36, EGFR(G719S) (Homo sapiens, UniProt P00533, G719S)", "T36 construct": "purchased DiscoveRx KINOMEscan"}, "[37]": {"target": "T37, TSSK3 (Homo sapiens, UniProt Q96PN8)", "T37 construct": "purchased DiscoveRx KINOMEscan", "T37 sequence (Q96PN8 whole entry)": "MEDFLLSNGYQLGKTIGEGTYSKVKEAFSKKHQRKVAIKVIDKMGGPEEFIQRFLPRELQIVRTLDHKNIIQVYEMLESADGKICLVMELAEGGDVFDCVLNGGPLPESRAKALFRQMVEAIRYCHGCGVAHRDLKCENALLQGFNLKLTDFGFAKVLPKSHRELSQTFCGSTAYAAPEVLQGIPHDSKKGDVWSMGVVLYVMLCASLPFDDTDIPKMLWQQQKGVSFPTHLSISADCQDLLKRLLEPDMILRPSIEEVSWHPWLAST"}, "[38]": {"target": "T38, NEK5 (Homo sapiens, UniProt Q6P3R8)", "T38 construct": "purchased DiscoveRx KINOMEscan", "T38 sequence (Q6P3R8 whole entry)": "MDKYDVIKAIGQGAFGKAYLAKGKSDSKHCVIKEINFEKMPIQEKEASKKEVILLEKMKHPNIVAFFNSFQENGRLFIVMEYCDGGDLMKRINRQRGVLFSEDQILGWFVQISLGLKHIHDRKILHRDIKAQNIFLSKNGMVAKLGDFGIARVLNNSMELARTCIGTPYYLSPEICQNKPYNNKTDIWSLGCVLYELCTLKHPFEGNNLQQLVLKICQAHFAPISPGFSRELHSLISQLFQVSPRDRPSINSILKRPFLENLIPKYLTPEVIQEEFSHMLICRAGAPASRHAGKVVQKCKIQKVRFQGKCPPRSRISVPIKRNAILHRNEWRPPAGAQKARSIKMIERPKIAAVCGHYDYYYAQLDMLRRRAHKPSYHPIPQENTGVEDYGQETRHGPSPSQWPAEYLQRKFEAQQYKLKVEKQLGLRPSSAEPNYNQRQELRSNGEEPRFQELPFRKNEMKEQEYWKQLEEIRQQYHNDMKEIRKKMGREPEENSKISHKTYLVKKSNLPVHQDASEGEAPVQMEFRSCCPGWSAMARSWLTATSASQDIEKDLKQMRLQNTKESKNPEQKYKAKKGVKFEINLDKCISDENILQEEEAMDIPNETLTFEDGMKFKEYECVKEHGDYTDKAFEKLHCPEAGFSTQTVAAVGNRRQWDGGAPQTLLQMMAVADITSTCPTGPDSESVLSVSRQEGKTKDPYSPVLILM"}, "[39]": {"target": "T39, ERK4 (Homo sapiens, UniProt P31152)", "T39 construct": "purchased DiscoveRx KINOMEscan"}, "[40]": {"target": "T40, ERK8 (Homo sapiens, UniProt Q8TD08)", "T40 construct": "purchased DiscoveRx KINOMEscan"}, "[41]": {"target": "T41, PAK6 (Homo sapiens, UniProt Q9NQU5)", "T41 construct": "purchased DiscoveRx KINOMEscan", "T41 sequence (Q9NQU5 whole entry)": "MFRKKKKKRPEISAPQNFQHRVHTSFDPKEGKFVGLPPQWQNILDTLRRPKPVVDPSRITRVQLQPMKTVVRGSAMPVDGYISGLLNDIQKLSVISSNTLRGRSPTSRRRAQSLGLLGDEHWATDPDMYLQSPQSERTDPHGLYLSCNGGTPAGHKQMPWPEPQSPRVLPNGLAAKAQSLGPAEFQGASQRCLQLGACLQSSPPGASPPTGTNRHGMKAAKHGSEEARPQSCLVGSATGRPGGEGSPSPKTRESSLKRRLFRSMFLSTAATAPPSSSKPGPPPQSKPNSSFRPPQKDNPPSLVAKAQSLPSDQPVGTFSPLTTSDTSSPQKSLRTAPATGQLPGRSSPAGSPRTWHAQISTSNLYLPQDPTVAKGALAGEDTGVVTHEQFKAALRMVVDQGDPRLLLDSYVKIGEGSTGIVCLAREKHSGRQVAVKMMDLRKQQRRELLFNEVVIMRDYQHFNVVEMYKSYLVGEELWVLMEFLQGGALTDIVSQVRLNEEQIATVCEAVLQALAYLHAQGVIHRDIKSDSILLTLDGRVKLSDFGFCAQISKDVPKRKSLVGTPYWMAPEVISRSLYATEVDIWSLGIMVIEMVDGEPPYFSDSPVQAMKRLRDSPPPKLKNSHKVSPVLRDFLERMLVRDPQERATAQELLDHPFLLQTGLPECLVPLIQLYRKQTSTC"}, "[42]": {"target": "T42, FAK (Homo sapiens, UniProt Q05397)", "T42 construct": "purchased DiscoveRx KINOMEscan", "T42 sequence (Q05397 whole entry)": "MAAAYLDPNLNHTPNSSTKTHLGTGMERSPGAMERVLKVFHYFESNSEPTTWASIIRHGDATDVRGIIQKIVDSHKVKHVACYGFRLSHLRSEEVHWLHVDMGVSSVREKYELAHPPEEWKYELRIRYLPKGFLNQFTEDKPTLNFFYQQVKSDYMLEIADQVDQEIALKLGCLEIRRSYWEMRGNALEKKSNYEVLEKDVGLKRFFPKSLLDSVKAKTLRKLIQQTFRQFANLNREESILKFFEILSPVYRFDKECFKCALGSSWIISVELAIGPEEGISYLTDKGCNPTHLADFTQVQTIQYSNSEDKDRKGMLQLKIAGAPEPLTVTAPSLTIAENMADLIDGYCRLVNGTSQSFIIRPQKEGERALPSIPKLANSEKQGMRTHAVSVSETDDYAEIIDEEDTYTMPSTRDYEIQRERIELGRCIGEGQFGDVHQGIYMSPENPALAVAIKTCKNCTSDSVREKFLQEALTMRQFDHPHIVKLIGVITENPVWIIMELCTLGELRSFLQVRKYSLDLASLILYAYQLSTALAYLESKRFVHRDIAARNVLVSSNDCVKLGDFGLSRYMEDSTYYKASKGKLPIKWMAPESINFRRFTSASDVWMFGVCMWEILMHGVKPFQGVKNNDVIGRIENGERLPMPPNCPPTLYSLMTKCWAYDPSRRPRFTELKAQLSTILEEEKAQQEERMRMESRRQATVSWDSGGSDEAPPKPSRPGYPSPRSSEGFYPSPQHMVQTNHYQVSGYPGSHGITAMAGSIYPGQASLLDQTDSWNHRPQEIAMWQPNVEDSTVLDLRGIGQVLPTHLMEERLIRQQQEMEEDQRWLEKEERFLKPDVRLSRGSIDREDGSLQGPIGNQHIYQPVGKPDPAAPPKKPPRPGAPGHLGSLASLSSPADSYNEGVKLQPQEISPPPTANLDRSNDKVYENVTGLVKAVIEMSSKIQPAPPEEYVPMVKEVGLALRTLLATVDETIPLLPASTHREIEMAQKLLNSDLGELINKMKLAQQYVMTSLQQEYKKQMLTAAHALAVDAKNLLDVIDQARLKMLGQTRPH"}, "[43]": {"target": "T43, ZAP70 (Homo sapiens, UniProt P43403)", "T43 construct": "purchased DiscoveRx KINOMEscan"}}, "data": [{"smiles": "CN1CCC(CNc2ccc3ncc(C(=O)Nc4cccc(OC(F)(F)F)c4)n3n2)CC1", "note": "[Cpd 2]", "values": [{"measurement": "remaining binding at 1 µM", "setting": "[1]", "value": 85, "unit": "%"}, {"measurement": "remaining binding at 1 µM", "setting": "[2]", "value": 92, "unit": "%"}, {"measurement": "remaining binding at 1 µM", "setting": "[3]", "value": 97, "unit": "%"}, {"measurement": "remaining binding at 1 µM", "setting": "[4]", "value": 100, "unit": "%"}, {"measurement": "remaining binding at 1 µM", "setting": "[5]", "value": 100, "unit": "%"}, {"measurement": "remaining binding at 1 µM", "setting": "[6]", "value": 100, "unit": "%"}, {"measurement": "remaining binding at 1 µM", "setting": "[7]", "value": 100, "unit": "%"}, {"measurement": "remaining binding at 1 µM", "setting": "[8]", "value": 99, "unit": "%"}, {"measurement": "remaining binding at 1 µM", "setting": "[9]", "value": 100, "unit": "%"}, {"measurement": "remaining binding at 1 µM", "setting": "[10]", "value": 100, "unit": "%"}, {"measurement": "remaining binding at 1 µM", "setting": "[11]", "value": 97, "unit": "%"}, {"measurement": "remaining binding at 1 µM", "setting": "[12]", "value": 94, "unit": "%"}, {"measurement": "remaining binding at 1 µM", "setting": "[13]", "value": 100, "unit": "%"}, {"measurement": "remaining binding at 1 µM", "setting": "[14]", "value": 100, "unit": "%"}, {"measurement": "remaining binding at 1 µM", "setting": "[15]", "value": 100, "unit": "%"}, {"measurement": "remaining binding at 1 µM", "setting": "[16]", "value": 99, "unit": "%"}, {"measurement": "remaining binding at 1 µM", "setting": "[17]", "value": 92, "unit": "%"}, {"measurement": "remaining binding at 1 µM", "setting": "[18]", "value": 99, "unit": "%"}, {"measurement": "remaining binding at 1 µM", "setting": "[19]", "value": 100, "unit": "%"}, {"measurement": "remaining binding at 1 µM", "setting": "[20]", "value": 94, "unit": "%"}, {"measurement": "remaining binding at 1 µM", "setting": "[21]", "value": 99, "unit": "%"}, {"measurement": "remaining binding at 1 µM", "setting": "[22]", "value": 100, "unit": "%"}, {"measurement": "remaining binding at 1 µM", "setting": "[23]", "value": 100, "unit": "%"}, {"measurement": "remaining binding at 1 µM", "setting": "[24]", "value": 93, "unit": "%"}, {"measurement": "remaining binding at 1 µM", "setting": "[25]", "value": 95, "unit": "%"}, {"measurement": "remaining binding at 1 µM", "setting": "[26]", "value": 74, "unit": "%"}, {"measurement": "remaining binding at 1 µM", "setting": "[27]", "value": 84, "unit": "%"}, {"measurement": "remaining binding at 1 µM", "setting": "[28]", "value": 95, "unit": "%"}, {"measurement": "remaining binding at 1 µM", "setting": "[29]", "value": 100, "unit": "%"}, {"measurement": "remaining binding at 1 µM", "setting": "[30]", "value": 98, "unit": "%"}, {"measurement": "remaining binding at 1 µM", "setting": "[31]", "value": 94, "unit": "%"}, {"measurement": "remaining binding at 1 µM", "setting": "[32]", "value": 100, "unit": "%"}, {"measurement": "remaining binding at 1 µM", "setting": "[33]", "value": 100, "unit": "%"}, {"measurement": "remaining binding at 1 µM", "setting": "[34]", "value": 98, "unit": "%"}, {"measurement": "remaining binding at 1 µM", "setting": "[35]", "value": 100, "unit": "%"}, {"measurement": "remaining binding at 1 µM", "setting": "[36]", "value": 100, "unit": "%"}, {"measurement": "remaining binding at 1 µM", "setting": "[37]", "value": 95, "unit": "%"}, {"measurement": "remaining binding at 1 µM", "setting": "[38]", "value": 98, "unit": "%"}, {"measurement": "remaining binding at 1 µM", "setting": "[39]", "value": 100, "unit": "%"}, {"measurement": "remaining binding at 1 µM", "setting": "[40]", "value": 96, "unit": "%"}, {"measurement": "remaining binding at 1 µM", "setting": "[41]", "value": 98, "unit": "%"}, {"measurement": "remaining binding at 1 µM", "setting": "[42]", "value": 100, "unit": "%"}, {"measurement": "remaining binding at 1 µM", "setting": "[43]", "value": 95, "unit": "%"}]}]}
